Common to all, as to assay: Ames mutagenicity test (back mutation)
Common to all, as to format: cell-based
What all share (set-up): key: -: no back mutation; (+): slight back mutuation; +: increasing back mutation; ++: increasing back mutation
A general note: The Ames test uses bacterial strains that need an amino acid and regain growth without it when mutated back.

Data set [1] concerns Salmonella thyphimurium strain TA 98. From the text:
(§1) Salmonella thyphimurium strains
(§2) without (-) and with (+) S9 - Mix

In data set [2] the test system is Salmonella thyphimurium strain TA 97.
Excerpt: as §1, §2

Data set [3] relates to Salmonella thyphimurium strain TA 100.
Excerpt: as §1, §2

In the case of `CCOc1ccc(N)cc1N` [2,4-diaminophenetol], the “Ames test result, TA 98” value in data set [1] (with (+) S9-Mix) is given as “++”; in data set [1] (without (-) S9-Mix), “-”. The “Ames test result, TA 97” value is listed as “+” in data set [2] (with (+) S9-Mix) and “-” in data set [2] (without (-) S9-Mix). In addition, the “Ames test result, TA 100” value in data set [3] (with (+) S9-Mix) and in data set [3] (without (-) S9-Mix) was “-” each time.

Consider `Nc1ccc(OC(F)(F)C(F)F)c(N)c1` [2,4-diaminotetrafluoroethoxybenzene], for which the “Ames test result, TA 98” value in data set [1] (with (+) S9-Mix) was “+”; in data set [1] (without (-) S9-Mix), “-”. The “Ames test result, TA 97” value in data set [2] (with (+) S9-Mix) is reported as “(+)”; in data set [2] (without (-) S9-Mix), “-”. The “Ames test result, TA 100” value in data set [3] (with (+) S9-Mix) and in data set [3] (without (-) S9-Mix) was “-” in each case.

With `COc1ccc(N)cc1N` [2,4-diaminoanisol], the “Ames test result, TA 98” value is “++” in data set [1] (with (+) S9-Mix) and “-” in data set [1] (without (-) S9-Mix). Further, the “Ames test result, TA 97” value in data set [2] (with (+) S9-Mix) is “+”; in data set [2] (without (-) S9-Mix) it was “-”. Also, the “Ames test result, TA 100” value is “(+)” in data set [3] (with (+) S9-Mix) and “-” in data set [3] (without (-) S9-Mix).

Regarding 2,4-diaminotrifluoroethoxybenzene, the entries for the “Ames test result, TA 98” value in data set [1] (with (+) S9-Mix) and in data set [1] (without (-) S9-Mix) were “++” and “-”, respectively. Moreover, the “Ames test result, TA 97” value in data set [2] (with (+) S9-Mix) and in data set [2] (without (-) S9-Mix) was “-” each time. The “Ames test result, TA 100” value is on record as “(+)” in data set [3] (with (+) S9-Mix) and “-” in data set [3] (without (-) S9-Mix).

On to `Cc1cc(OC(F)(F)C(F)F)c(N)cc1N` [2,4-diamino-5-tetrafluoroethoxy-toluene, 2,4-diamino-5-tetrafluoroethoxytoluene], for which the “Ames test result, TA 98” value in data set [1] (with (+) S9-Mix) and in data set [1] (without (-) S9-Mix) was “-” throughout. Also, the “Ames test result, TA 97” value in data set [2] (with (+) S9-Mix) and in data set [2] (without (-) S9-Mix) was “-” each time. The “Ames test result, TA 100” value in data set [3] (with (+) S9-Mix) and in data set [3] (without (-) S9-Mix) was “-” each time.

The record behind these values is US4845294A, “Diaminotetrafluoroethoxybenzenes” (Wella Aktiengesellschaft, priority 1984, dated 1989).
